Data from patent US8470765B2, “Polypeptides and antibacterial or antiseptic use of same” (AnGes MG, Inc., priority 2009, dated 2013).
Where two headings read alike, the source gives them in different places. No end group written: not given here.

Assays:
[1] = system: Enterobacter aerogenes JCM 1235; assay: microbe, parasite or virus in culture; format: cell-based
Outline: (§1)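 Broth microdilution in Mueller-Hinton broth, about 10^5 CFU/mL final inoculum from log-phase cultures adjusted to McFarland 0.5. Incubated at 37° C for 16–24 h. MIC is the lowest concentration visibly inhibiting growth, from two or more independent experiments.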

[2] = system: Escherichia coli ATCC 25922; assay: microbe, parasite or virus in culture; format: cell-based
Outline: as §1

[3] = system: Klebsiella pneumoniae JCM 1662; assay: microbe, parasite or virus in culture; format: cell-based
Outline: as §1

[4] = system: Pseudomonas aeruginosa ATCC 27853; assay: microbe, parasite or virus in culture; format: cell-based
Outline: as §1

[5] = system: Staphylococcus aureus ATCC29213; assay: microbe, parasite or virus in culture; format: cell-based
Outline: as §1

[6] = system: Staphylococcus epidermidis JCM 2414; assay: microbe, parasite or virus in culture; format: cell-based
Outline: as §1

[7] = system: Enterobacter cloacae JCM 1232; format: cell-based; details: Table 4; two tests, first/second value where not identical
Description: Bacteria (Escherichia coli ATCC 25922, Pseudomonas aeruginosa ATCC 27853, Staphylococcus aureus ATCC29213, Klebsiella pneumoniae JCM 1662, Enterobacter cloacae JCM 1232, Enterobacter aerogenes JCM 1235 and Staphylococcus epidermidis JCM 2414) were inoculated to Mueller-Hinton broth: MHB or LB medium, and cultured at a temperature and period suited for each strain. From the thus obtained colonies, each strain was inoculated to a fresh liquid medium and cultured for 16 to 20 hours. Then an aliquot having a volume (10 to 50 appropriate to each strain was inoculated to a fresh liquid medium and cultured for 4 to 6 hours, followed by the measurement of the absorbance at 600 nm. After comparing the turbidity with McFarland #0.5, the resultant was diluted with a medium. Each strain was added to about 10^5 CFU/mL (final concentration). Each of the peptide solutions to be tested was diluted with MHB to obtain a solution of 128 μg/mL. […] As controls, tobramycin (TOB: aminoglucoside antibiotic), oxacillin (OX:β-lactam antibiotic), meropenem (MEPM: carbapenem antibiotic) and ciprofloxacin (new quinolone antibiotic) were used. […] To a 96-well microtiter plate, 0.1 mL of the inoculation solution and 0.1 mL of the peptide- or positive control-containing medium having the respective concentration were added, and cultured at 37° C. for 16 to 24 hours (or a time period suited for the growth of the respective strain). The well not containing the sample was used as a negative control. After the culturing, the growth was visually observed, and the minimum concentration at which the growth was inhibited was defined as the minimum growth inhibition concentration (MIC). The medium used in this test for bacteria was Mueller-Hinton broth. Independent experiments were carried out twice or more for each strain.

[8] = system: Pseudomonas aeruginosa 1 (clinical strain); assay: microbe, parasite or virus in culture
Description: (§2) Bacteria (Escherichia coli ATCC 25922, Pseudomonas aeruginosa ATCC 27853, Staphylococcus aureus ATCC29213, Klebsiella pneumoniae JCM 1662, Enterobacter cloacae JCM 1232, Enterobacter aerogenes JCM 1235 and Staphylococcus epidermidis JCM 2414) were inoculated to Mueller-Hinton broth: MHB or LB medium, and cultured at a temperature and period suited for each strain. From the thus obtained colonies, each strain was inoculated to a fresh liquid medium and cultured for 16 to 20 hours. Then an aliquot having a volume (10 to 50 appropriate to each strain was inoculated to a fresh liquid medium and cultured for 4 to 6 hours, followed by the measurement of the absorbance at 600 nm. After comparing the turbidity with McFarland #0.5, the resultant was diluted with a medium. Each strain was added to about 10^5 CFU/mL (final concentration).
(§3) Further, the antibacterial activities against the clinical strains collected and isolated from infected patients were also examined. The tests were carried out for two methicillin-resistant Staphylococcus (MRSA) (MRSA (i) and (ii)), two methicillin-sensitive Staphylococcus (MSSA) (MSSA (i) and (ii)), five Pseudomonas aeruginosa, Pseudomonas aeruginosa 1, Pseudomonas aeruginosa 6, Pseudomonas aeruginosa 8. Pseudomonas aeruginosa 9 and Pseudomonas aeruginosa 12, totally 9 clinical strains. The MRSA and MSSA clinical strains were tested by the same method as Staphylococcus aureus ATCC29213, and Pseudomonas clinical strains were tested by the same method as Pseudomonas aeruginosa ATCC 27853.
(§4) Each of the peptide solutions to be tested was diluted with MHB to obtain a solution of 128 μg/mL. This solution was serially diluted with the medium to prepare peptide-containing media having concentrations of 128, 64, 32, 16, 8.0, 4.0 and 2.0 μg/mL respectively. […] By dilution with sterilized purified water to 1.0 mg/mL, positive control-containing media having concentrations of 16, 8, 4, 2, 1.0, 0.25, 0.12 and 0.06 μg/mL, respectively for TOB; 0.5, 0.12 and 0.06 μg/mL, respectively, for OX; and 16, 8, 4, 2, 1.0, 0.25, 0.12, 0.06, 0.06, 0.03 and 0.008 μg/mL, respectively, for MEPM, were prepared.
(§5) To a 96-well microtiter plate, 0.1 mL of the inoculation solution and 0.1 mL of the peptide- or positive control-containing medium having the respective concentration were added, and cultured at 37° C. for 16 to 24 hours (or a time period suited for the growth of the respective strain). The well not containing the sample was used as a negative control. After the culturing, the growth was visually observed, and the minimum concentration at which the growth was inhibited was defined as the minimum growth inhibition concentration (MIC).
(§6) The medium used in this test for bacteria was Mueller-Hinton broth. Independent experiments were carried out twice or more for each strain.

[9] = system: Pseudomonas aeruginosa 12 (clinical strain); assay: microbe, parasite or virus in culture; details: Table 4; clinical strain; first/second value where not identical
Description: as §2, §3, §4, §5, §6

[10] = system: Pseudomonas aeruginosa 6 (clinical strain); assay: microbe, parasite or virus in culture
Description: as §2, §3, §4, §5, §6

[11] = system: Pseudomonas aeruginosa 9 (clinical strain); assay: microbe, parasite or virus in culture
Description: as §2, §3, §4, §5, §6

[12] = system: Bacteroides fragilis JCM 11019; details: JCM 11019
[13] = system: Alternaria alternata JCM5800; details: JCM5800
[14] = system: Candida krusei NBRC1395; details: NBRC1395
[15] = system: Cryptococcus neoformans IFM 46660
[16] = Table 4, two tests, first/second value where not identical
[17] = Table 4, clinical strain, first/second value where not identical

Substance: KNLRRIIRKIIHIIKKYG-NH2 [Ovispirin-1, reference compound]
- MIC Enterobacter aerogenes [1, 16]: 16/32
- MIC Escherichia coli [2, 16]: 8/16
- MIC Klebsiella pneumoniae [3, 16]: 8/16
- MIC Pseudomonas aeruginosa [4, 16]: 16/32
- MIC Staphylococcus aureus ([5]; ATCC29213): 16 mg/L
- MIC Staphylococcus epidermidis [6, 16]: 8/16
- MIC Enterobacter cloacae [7]: 32/64
- MIC Pseudomonas aeruginosa 1 [8, 17]: 16/64
- MIC Pseudomonas aeruginosa 12 [9]: 16/32
- MIC Pseudomonas aeruginosa 6 [10, 17]: 32/64
- MIC Pseudomonas aeruginosa 9 [11, 17]: 32/128
- MIC Bacteroides fragilis [12]: 1 mg/L
- MIC Alternaria alternata [13]: 64 mg/L
- MIC Candida krusei [14]: 16 mg/L
- MIC Cryptococcus neoformans [15, 16]: 2/4

Substance: GRLKRMGERLKRKIQKWIRW-NH2 [SRP-15]
- MIC Enterobacter aerogenes ([1]; JCM 1235): 16 mg/L
- MIC Escherichia coli ([2]; ATCC 25922): 16 mg/L
- MIC Klebsiella pneumoniae ([3]; JCM 1662): 16 mg/L
- MIC Pseudomonas aeruginosa ([4]; ATCC 27853): 16 mg/L
- MIC Staphylococcus aureus ([5]; ATCC29213): 16 mg/L
- MIC Staphylococcus epidermidis ([6]; JCM 2414): 8 mg/L
- MIC Enterobacter cloacae [7]: 16/32
- MIC Pseudomonas aeruginosa 1 ([8]; 1 (clinical strain)): 16 mg/L
- MIC Pseudomonas aeruginosa 12 [9]: 8/16
- MIC Pseudomonas aeruginosa 6 ([10]; 6 (clinical strain)): 16 mg/L
- MIC Pseudomonas aeruginosa 9 [11, 17]: 8/64
- MIC Bacteroides fragilis [12]: 16 mg/L
- MIC Alternaria alternata [13]: 64 mg/L
- MIC Candida krusei [14]: 16 mg/L
- MIC Cryptococcus neoformans ([15]; IFM 46660): 2 mg/L

Substance: RLKRMRKRLKRKLRLW-NH2 [SRP-17]
- MIC Enterobacter aerogenes ([1]; JCM 1235): 128 mg/L
- MIC Escherichia coli [2, 16]: 16/32
- MIC Klebsiella pneumoniae ([3]; JCM 1662): 32 mg/L
- MIC Pseudomonas aeruginosa [4, 16]: 32/64
- MIC Staphylococcus aureus [5, 16]: 16/32
- MIC Staphylococcus epidermidis [6, 16]: 4/8
- MIC Enterobacter cloacae [7]: 128< mg/mL
- MIC Pseudomonas aeruginosa 1 [8, 17]: 32/64
- MIC Pseudomonas aeruginosa 12 [9]: 16/64
- MIC Pseudomonas aeruginosa 6 [10, 17]: 32/64
- MIC Pseudomonas aeruginosa 9 [11, 17]: 64/128
- MIC Bacteroides fragilis [12]: > 128 mg/L
- MIC Alternaria alternata [13]: 32 mg/L
- MIC Candida krusei [14]: 32 mg/L
- MIC Cryptococcus neoformans ([15]; IFM 46660): 2 mg/L

Substance: KLIFLHRLKRELRKRLKRKLR-NH2 [SRP-13]
- MIC Enterobacter aerogenes [1, 16]: 16/64
- MIC Escherichia coli [2, 16]: 16/32
- MIC Klebsiella pneumoniae ([3]; JCM 1662): 32 mg/L
- MIC Pseudomonas aeruginosa ([4]; ATCC 27853): 16 mg/L
- MIC Staphylococcus aureus ([5]; ATCC29213): 32 mg/L
- MIC Staphylococcus epidermidis [6, 16]: 4/8
- MIC Enterobacter cloacae [7]: 32/64
- MIC Pseudomonas aeruginosa 1 [8, 17]: 16/32
- MIC Pseudomonas aeruginosa 12 [9]: 8/16
- MIC Pseudomonas aeruginosa 6 [10, 17]: 8/16
- MIC Pseudomonas aeruginosa 9 ([11]; 9 (clinical strain)): 64 mg/L
- MIC Bacteroides fragilis [12]: 64 mg/L
- MIC Alternaria alternata [13]: 64 mg/L
- MIC Candida krusei [14]: 32 mg/L
- MIC Cryptococcus neoformans ([15]; IFM 46660): 2 mg/L
